Numbers after ± are expanded uncertainties.
Assay: wn = mass fraction of the nth substance listed
Settings: Liquid

CN(CCO)CCO [N-methyldiethanolamine] + O
Settings	mass density [kg/m3]
298.31 K, 205 kPa, w1 = 0.3	1023.7 ± 0.7
298.31 K, 506 kPa, w1 = 0.3	1023.8 ± 0.7
298.31 K, 1006 kPa, w1 = 0.3	1024 ± 0.7
298.31 K, 2006 kPa, w1 = 0.3	1024.3 ± 0.8
298.32 K, 5003 kPa, w1 = 0.3	1025.5 ± 0.8
298.33 K, 206 kPa, w1 = 0.15	1009.9 ± 0.6
298.33 K, 508 kPa, w1 = 0.15	1010 ± 0.6
298.33 K, 1008 kPa, w1 = 0.15	1010.2 ± 0.6
298.33 K, 2008 kPa, w1 = 0.15	1010.6 ± 0.6
298.34 K, 5006 kPa, w1 = 0.15	1011.9 ± 0.6
